Results as given in patent publication US7550509B2, “Carisoprodol articles and methods” (Mutual Pharmaceutical Company, Inc., priority 2006, dated 2009).
Where two headings read alike, the source gives them in different places.

Tests used:
[1] = Biostudy of carisoprodol (SOMA®) pharmacokinetics under non-fasted and fasted conditions, randomized single-dose two-way crossover; type: in vivo, human (healthy adults); conditions: for AUC(0-inf) / AUC(0-t) / Tmax / Cmax: plasma; for AUC(0-inf): read-out: AUC0-INF, geometric mean (ln-transformed); for AUC(0-t): read-out: AUC0-t, geometric mean (ln-transformed); for Tmax: read-out: Tmax, least sq. mean (non-transformed); for Cmax: single dose SOMA®, 22 subjects, read-out: Cmax, geometric mean (ln-transformed)
Experimental: A biostudy was conducted under fasted and non-fasted conditions.
The dosage form is administered with 240 ml of water during the fasting period, and water can be allowed ad libitum after 2 hours.
As used herein, for the purposes of biostudy and the determination of bioequivalence, a non-fasted patient is defined as a patient who fasts for at least 10 hours overnight and then consumes an entire test meal within 30 minutes of first ingestion. The dosage form is administered with 240 mL of water at 30 minutes after first ingestion of the meal. No food is then allowed for at least 4 hours post-dose. Water can be allowed ad libitum after 2 hours. A high fat test meal provides approximately 1000 calories to the patient of which approximately 50% of the caloric content is derived from fat content of the meal. A representative high fat high calorie test meal comprises 2 eggs fried in butter, 2 strips of bacon, 2 slices of toast with butter, 4 ounces of hash brown potatoes, and 8 ounces of whole milk to provide 150 protein calories, 250 carbohydrate calories, and 500 to 600 fat calories.
The study was designed as a randomized, single-dose two-way crossover to compare the pharmacokinetic parameters of SOMA®. Twenty-four healthy adults participated in this comparison study and 22 of the subjects completed the study. Subjects received two separate drug administration treatments in assigned periods, one treatment per period, according to the randomization schedule. Dosing days were separated by a washout period of at least seven days. Blood samples were drawn prior to dosing (pre-dose) and at 0.33, 0.67, 1, 1.5, 2, 2.5, 3, 3.5, 4, 5, 6, 7, 8, 10, 12, 18, and 24 hours post-dose. The samples were then analyzed for carisoprodol and meprobamate.
The following pharmacokinetic parameters may be determined from the plasma concentration data:
The area under the plasma concentration versus time curve [AUCt] may be calculated using the linear trapezoidal rule from the zero time point to the last measured concentration.
The area under the plasma concentration versus time curve from zero to infinity [AUC0-INF] may be calculated by adding Ct/Kelm to AUC where Ct is the last measured concentration and Kelm is the elimination rate constant.
The maximum observed plasma concentration [Cmax] may be obtained by inspection. The Cmax may also be designated as CMAX.
The time to maximum plasma concentration [Tmax] may be obtained by inspection. If the same maximum plasma concentration occurs at more than one time point, the first may be chosen as Tmax.
The terminal elimination rate constant [Kelm] may be obtained from the slope of the line, fitted by linear least squares regression, through the terminal points of the 1n(base e) of the concentration versus time plot for these points.
The half-life [T1/2] may be calculated by the equation T1/2=0.693/Kelm.

[2] = cited from earlier work
[3] = carisoprodol, non-fasted compared to fasted
[4] = carisoprodol, non-fasted vs fasted
[5] = human, oral, carisoprodol in plasma, fasted
[6] = human, oral, carisoprodol in plasma, non-fasted

For `CCCC(C)(COC(N)=O)COC(=O)NC(C)C` (stereo not drawn) [carisoprodol, N-isopropyl-2-methyl-2-propyl-1,3-propanediol dicarbamate], the “T½, least sq. mean” value ([1]; carisoprodol in plasma, fasted) was 1.95 h, the “kelm (elimination rate constant), least sq. mean” value ([1]; carisoprodol in plasma, fasted) was 0.376 and the “kelm (elimination rate constant), least sq. mean” value ([1]; carisoprodol in plasma, non-fasted) was 0.3713. The “decrease in the geometric mean of Cmax in the presence of food” value [1, 3] was 16%, the “effect of food on AUC (AUC0-t and AUC0-INF) (in words)” value [1, 3] was “substantially unchanged” and the “effect of food on Cmax (in words)” value [1, 3] was “decreases”. For the same compound, the “AUC0-INF, % Ratio of geometric means” value [1, 4] was 96.8%, the “AUC0-t, % Ratio of geometric means” value [1, 4] was 96.1% and the “Cmax, % Ratio of geometric means” value [1, 4] was 83.8%. For the same compound, the “Tmax, % Ratio” value [1, 4] was 137.5%, the “T½, % Ratio” value [1, 4] was 100% and the “kelm, % Ratio” value [1, 4] was 98.7%. The half-life ([1]; human, oral, carisoprodol in plasma, non-fasted, read-out: T½, least sq. mean (converted)) was 1.95 h, the AUC(0-inf) [1, 5] was 6510 ng·h/mL and the AUC(0-t) [1, 5] was 6380 ng·h/mL. It also gave a Tmax [1, 5] of 1.63 h, a Cmax [1, 5] of 2000 ng/mL and a Cmax ([1]; human, oral, carisoprodol in plasma, non-fasted (high fat meal)) of 1680 ng/mL. The AUC(0-inf) [1, 6] was 6310 ng·h/mL, the AUC(0-t) [1, 6] was 6140 ng·h/mL and the Tmax [1, 6] was 2.24 h. For the same compound, the “solubility in organic solvents (in words)” value ([2]; alcohol, chloroform, and acetone) was “freely soluble”, the solubility in water ([2]; between 25 to 50° C.) was 300 to 1400 µg/mL and the “solubility in water (in words)” value ([2]; water) was “very sparingly soluble”.
